# Experimental data taken from article PMC3076090 (Pharmaceutical research, 2010).
# Where two headings read alike, the source gives them in different places.
# Columns and labels:
# [1] = measured octanol-water partition coefficients from multiple sources; cited from earlier work
# [2] = pKa determination at 37°C; format: physicochemical
# [3] = intrinsic PAMPA permeability, 10% porcine brain extract lipids in alkane; cited from earlier work
# blood-brain barrier [4] = experiment: in situ rat brain perfusion, pH-dependent; conditions: for Kin: 30-s perfusion; for PcS (pH-CRE): new pH-CRE method; for log(Kin/S) (= log Pe): S = 100 cm^2·g^−1; for PcS (CRE): traditional Crone-Renkin equation; for Fpf (cerebrovascular flow velocity refined from the compound's Kin-pH data): weighted nonlinear regression, Eq. 4
# blood-brain barrier [5] = conditions: pH 7.4; S = 100 cm^2·g^−1; rat; cited from earlier work
# blood-brain barrier [6] = conditions: mouse in situ brain perfusion; cited from earlier work
# blood-brain barrier [7] = conditions: male, Sprague-Dawley, rat, 30 s
# blood-brain barrier [8] = conditions: typical values; cited from earlier work
molecule,measurement,setting,value
CN(C)CCC=C1c2ccccc2CCc2ccccc21 [Amitriptyline],log POCT,[1],4.6
same,pKa,[2],8.92 ± 0.1
same,log Po^PAMPA−BBB,[3],−1.2
same,Kin,"blood-brain barrier [4]; dosing group B-1, pH 8.0, 10 mM bicine in KRB",0.044 ± 0.013 mL/g/s
same,Kin,"blood-brain barrier [4]; dosing group B-2, pH 8.5, 10 mM bicine in KRB",0.045 ± 0.014 mL/g/s
same,PcS (pH-CRE),blood-brain barrier [4]; pH 7.4,2997
same,log(Kin/S) (= log Pe),"blood-brain barrier [4]; pH 8.0, this work",−3.35 ± 0.13 cm·s^−1
same,PcS (pH-CRE),blood-brain barrier [4]; pH 8.0,"10,974"
same,PcS (CRE),blood-brain barrier [4]; pH 8.0,549
same,log(Kin/S) (= log Pe),"blood-brain barrier [4]; pH 8.5, this work",−3.35 ± 0.13 cm·s^−1
same,PcS (pH-CRE),blood-brain barrier [4]; pH 8.5,"28,173"
same,Fpf (cerebrovascular flow velocity refined from the compound's Kin-pH data),blood-brain barrier [4],0.051 ± 0.003 mL.g^−1.s^−1
same,log(Kin/S) (= log Pe),blood-brain barrier [5],−3.27 ± 0.06 cm·s^−1
same,Pgp effect ratio Kin^knockout/Kin^wildtype,blood-brain barrier [6],1.0
Cc1cc(=O)n(-c2ccccc2)n1C [Antipyrine],log POCT,[1],0.6
same,Kin (range over dosing groups),"blood-brain barrier [7]; in vivo, pH 5.5",0.0042 to 0.0082 mL/g/s
same,PcS (CRE),"blood-brain barrier [7]; in vivo, pH 5.5",63
same,PcS (pH-CRE),"blood-brain barrier [7]; in vivo, pH 5.5",77
same,PcS (CRE),"blood-brain barrier [7]; in vivo, pH 6.5",54
same,PcS (pH-CRE),"blood-brain barrier [7]; in vivo, pH 6.5",77
same,Kin,"blood-brain barrier [7]; in vivo, pH 7.4",82 ± 23 10^−4 mL.g^−1.s^−1
same,PcS (CRE),"blood-brain barrier [7]; in vivo, pH 7.4",92
same,PcS (pH-CRE),"blood-brain barrier [7]; in vivo, pH 7.4",77
same,PcS (CRE),"blood-brain barrier [7]; in vivo, pH 8",80
same,PcS (pH-CRE),"blood-brain barrier [7]; in vivo, pH 8",77
same,PcS (CRE),"blood-brain barrier [7]; in vivo, pH 8.5",70
same,PcS (pH-CRE),"blood-brain barrier [7]; in vivo, pH 8.5",77
same,"log Po (intrinsic, neutral molecule, luminal permeability)",blood-brain barrier [7]; po,−4.13 ± 0.02 cm.s^−1
same,log Po^PAMPA−BBB,[3],−5.3
CNCC[C@@H](Oc1ccccc1C)c1ccccc1 [Atomoxetine],log POCT,[1],3.3
same,pKa,[2],9.5 ± 0.05
same,log Po^PAMPA−BBB,[3],−1.8
same,Kin,"blood-brain barrier [4]; dosing group B-3, pH 8.0, 10 mM bicine in KRB",0.026 ± 0.010 mL/g/s
same,Kin,"blood-brain barrier [4]; dosing group B-4, pH 8.5, 10 mM bicine in KRB, no CsA",0.032 ± 0.015 mL/g/s
same,PcS (pH-CRE),blood-brain barrier [4]; pH 7.4,805
same,log(Kin/S) (= log Pe),"blood-brain barrier [4]; pH 8.0, this work",−3.59 ± 0.16 cm·s^−1
same,PcS (pH-CRE),blood-brain barrier [4]; pH 8.0,3134
same,PcS (CRE),blood-brain barrier [4]; pH 8.0,549
same,log(Kin/S) (= log Pe),"blood-brain barrier [4]; pH 8.5, this work",−3.50 ± 0.20 cm·s^−1
same,PcS (pH-CRE),blood-brain barrier [4]; pH 8.5,9295
same,Fpf (cerebrovascular flow velocity refined from the compound's Kin-pH data),blood-brain barrier [4],0.031 ± 0.002 mL.g^−1.s^−1
same,log(Kin/S) (= log Pe),blood-brain barrier [5],−3.49 ± 0.12 cm·s^−1
CN(C)CCCN1c2ccccc2CCc2ccccc21 [Imipramine],pKa,[2],9.23 ± 0.06
same,Kin,"blood-brain barrier [4]; dosing group B-5, pH 7.4, KRB",0.031 ± 0.021 mL/g/s
same,Kin,"blood-brain barrier [4]; dosing group B-6, pH 8.5, 10 mM bicine in KRB",0.032 ± 0.002 mL/g/s
same,PcS (pH-CRE),blood-brain barrier [4]; pH 7.4,1416
same,PcS (CRE),blood-brain barrier [4]; pH 7.4,1437
same,PcS (pH-CRE),blood-brain barrier [4]; pH 8.5,"15,260"
same,PcS (CRE),blood-brain barrier [4]; pH 8.5,2150
same,Fpf (cerebrovascular flow velocity refined from the compound's Kin-pH data),blood-brain barrier [4],0.032 mL.g^−1.s^−1
COc1ccc2c(c1)c(CC(=O)O)c(C)n2C(=O)c1ccc(Cl)cc1 [Indomethacin],log POCT,[1],3.5
same,log Po^PAMPA−BBB,[3],−2.7
same,Kin,"blood-brain barrier [4]; dosing group A-1, pH 5.5, 10 mM MES in KRB",0.032 ± 0.008 mL/g/s
same,Kin,"blood-brain barrier [4]; dosing group A-2, pH 6.5, 10 mM MES in KRB",0.004 ± 0.001 mL/g/s
same,Kin,"blood-brain barrier [4]; dosing group A-2, pH 6.5, 10 mM MES in KRB, listed as indomethacin",0.0042 ± 0.0008 mL/g/s
same,log(Kin/S) (= log Pe),"blood-brain barrier [4]; pH 5.5, this work",−3.50 ± 0.10 cm·s^−1
same,PcS (pH-CRE),blood-brain barrier [4]; pH 5.5,399
same,PcS (CRE),blood-brain barrier [4]; pH 5.5,400
same,log(Kin/S) (= log Pe),"blood-brain barrier [4]; pH 6.5, this work (sertraline with 5 µM CsA)",−4.39 ± 0.08 cm·s^−1
same,PcS (pH-CRE),blood-brain barrier [4]; pH 6.5,42
same,PcS (CRE),blood-brain barrier [4]; pH 6.5,42
same,Fpf (cerebrovascular flow velocity refined from the compound's Kin-pH data),blood-brain barrier [4],0.081 mL.g^−1.s^−1
CNCCCC12CCC(c3ccccc31)c1ccccc12 [Maprotiline],log POCT,[1],5.1
same,pKa,[2],10.01 ± 0.01
same,log Po^PAMPA−BBB,[3],−0.6
same,Kin,"blood-brain barrier [4]; dosing group B-7, pH 8.0, 10 mM bicine in KRB",0.052 ± 0.011 mL/g/s
same,Kin,"blood-brain barrier [4]; dosing group B-8, pH 8.5, 10 mM bicine in KRB",0.036 ± 0.013 mL/g/s
same,log(Kin/S) (= log Pe),"blood-brain barrier [4]; pH 7.4, this work",−3.48 ± 0.11 cm·s^−1
same,PcS (pH-CRE),blood-brain barrier [4]; pH 7.4,591
same,PcS (CRE),blood-brain barrier [4]; pH 7.4,580
same,log(Kin/S) (= log Pe),"blood-brain barrier [4]; pH 8.0, this work",−3.29 ± 0.09 cm·s^−1
same,PcS (pH-CRE),blood-brain barrier [4]; pH 8.0,2335
same,log(Kin/S) (= log Pe),"blood-brain barrier [4]; pH 8.5, this work",−3.44 ± 0.15 cm·s^−1
same,PcS (pH-CRE),blood-brain barrier [4]; pH 8.5,7234
same,PcS (CRE),blood-brain barrier [4]; pH 8.5,691
same,Fpf (cerebrovascular flow velocity refined from the compound's Kin-pH data),blood-brain barrier [4],0.047 ± 0.006 mL.g^−1.s^−1
CN[C@H]1CC[C@@H](c2ccc(Cl)c(Cl)c2)c2ccccc21 [Sertraline],log POCT,[1],4.9
OC[C@H]1O[C@@](CO)(O[C@H]2O[C@H](CO)[C@@H](O)[C@H](O)[C@H]2O)[C@@H](O)[C@@H]1O [sucrose],in vivo Pc (paracellular),blood-brain barrier [8],about 0.15 10^−6 cm·s^−1
inulin,in vivo Pc (paracellular),blood-brain barrier [8],~0.04 10^−6 cm·s^−1
